How the values were obtained:
[1] = Evaluated for its effect in the cat cardioaccelerator nerve assay at the dose of 0.0013 umol/kg; assay type: functional; settings: Felis catus
[2] = Evaluated for its effect in the cat cardioaccelerator nerve assay at the dose of 300 ug/kg; assay type: functional; settings: Felis catus

SMILES	inhibition in vivo at 0.0013 µmol/kg [1] [%]	inhibition in vivo at 0.3 mg/kg [2] [%]
CCCN1CCC[C@H]2c3cc(O)c(O)cc3CC[C@@H]21	50	
CCCN1CCC[C@H]2c3cc(OC)c(O)cc3CC[C@@H]21		50

— ChEMBL document CHEMBL1124848, “Monomethyl ether derivatives of 7,8-dihydroxy- and 8,9-dihydroxy-4-n-propyl-1,2,3,4,4a,5,6,10b-octahydrobenzo[f]quinolines as possible products of metabolism by catechol-O-methyltransferase” (1990)
